Reference: publication PMC6212536, “Allosteric Site Inhibitor Disrupting Auto-Processing of Malarial Cysteine Proteases” (Scientific Reports, 2018)

Experiments:
[1] = target: T1, pro-falcipain-2 (pro-FP2) (Plasmodium falciparum, UniProt Q8I6U4); experiment: SPR, immobilized pro-enzyme; auto-processing also blocked; assay type: binding
T1 construct: gene FP2A

[2] = target: pro-falcipain-3 (pro-FP3) (Plasmodium falciparum, UniProt Q8IIL0); experiment: as above; assay type: binding
Chain of pro-falcipain-3 (pro-FP3) (Q8IIL0 57-492): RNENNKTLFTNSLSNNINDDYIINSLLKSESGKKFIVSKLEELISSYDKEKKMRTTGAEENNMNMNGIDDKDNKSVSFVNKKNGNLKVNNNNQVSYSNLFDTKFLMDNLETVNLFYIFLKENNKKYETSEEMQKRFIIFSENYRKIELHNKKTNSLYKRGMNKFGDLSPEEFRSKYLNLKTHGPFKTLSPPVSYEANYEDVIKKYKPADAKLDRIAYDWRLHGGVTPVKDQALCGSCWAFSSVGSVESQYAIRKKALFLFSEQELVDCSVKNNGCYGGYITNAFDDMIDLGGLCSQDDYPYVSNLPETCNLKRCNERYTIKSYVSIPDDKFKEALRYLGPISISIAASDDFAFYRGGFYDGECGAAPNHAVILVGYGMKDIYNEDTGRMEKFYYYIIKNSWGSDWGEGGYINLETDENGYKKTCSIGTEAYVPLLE

T1 sequence (Q8I6U4 208-484): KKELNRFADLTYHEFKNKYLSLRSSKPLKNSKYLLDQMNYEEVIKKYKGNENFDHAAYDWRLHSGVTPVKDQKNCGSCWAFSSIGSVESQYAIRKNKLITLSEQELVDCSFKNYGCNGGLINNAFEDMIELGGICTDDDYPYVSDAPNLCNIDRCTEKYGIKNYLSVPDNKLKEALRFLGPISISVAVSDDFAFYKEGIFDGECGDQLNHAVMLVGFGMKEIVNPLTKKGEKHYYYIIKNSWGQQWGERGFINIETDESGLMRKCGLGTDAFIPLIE

Row | Structure (SMILES) | Kd [1] | Kd [2]
1 | O=C(CC1(NC(=O)c2cnccn2)CCCCC1)NNC(=O)c1cnccn1 [NA-03] | 1.67 ± 0.01 nM | 2 ± 0.04 nM
2 | O=C(CC1(CNC(=O)c2cnccn2)CCCCC1)NNC(=O)c1cnccn1 [NA-01] | 1.72 ± 0.03 nM | 5.14 ± 0.07 nM
